Reference: publication PMC8813674 (Computational and Structural Biotechnology Journal, 2022)
Where two headings read alike, the source gives them in different places.

How the values were obtained:
[1] = system: porcine epidemic diarrhea virus (PEDV); conditions: for SI (=CC50/EC50): CC50 in eGFP-Vero cells / EC50 against mCherry-PEDV
[2] = system: porcine epidemic diarrhea virus (PEDV); assay: microbe, parasite or virus in culture; conditions: 15 h, read-out: EC50 ± SD

## CCC(CC)COC(=O)[C@H](C)N[P@](=O)(OC[C@H]1O[C@@](C#N)(c2ccc3c(N)ncnn23)[C@H](O)[C@@H]1O)Oc1ccccc1 [Remdesivir]
[1]; 50 µM, 15 h post-infection
  Antiviral effect (mCherry expression and syncytia formation): completely inhibited
[1]
  SI (=CC50/EC50): >37
[1]; listed as remdesivir
  SI (=CC50/EC50): > 37
[2]
  EC50: 2.71 ± 0.7 µM
